Assay results published in PubChem BioAssay (NCI).
“And” between values parts separate entries of the source, which are not always exact repeats. Equal entries are not always repeated.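 Briefly, cells in 96-well plates were exposed to five compound concentrations for 48 h, and endpoints were estimated by linear interpolation. GI50 = concentration required for 50% inhibition of growth. TGI is the concentration that stops growth completely.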

Experiments:
Test in all cases: inhibition of tumour cell growth, NCI panel, 48 h
[1] = test system: HCT-116 colon
[2] = test system: MOLT-4 leukemia
[3] = test system: HCT-15 colon
[4] = test system: RPMI-8226 leukemia
[5] = test system: SN12C renal
[6] = test system: OVCAR-8 ovarian
[7] = test system: SF-295 CNS
[8] = test system: UACC-257 melanoma
[9] = test system: MDA-MB-435
[10] = test system: COLO 205 colon

Compound | TGI [1] [µM] | TGI [2] [µM] | TGI [3] [µM] | TGI [4] [µM] | TGI [5] | TGI [6] [µM] | TGI [7] [µM] | TGI [8] [µM] | TGI [9] [µM] | TGI [10] [µM] | GI50 [1] | GI50 [2] [µM] | GI50 [3] | GI50 [4] | GI50 [5] | GI50 [6] [µM] | GI50 [7] [µM] | GI50 [8] [µM] | GI50 [9] | GI50 [10]
CCN(CC)CCn1c2ccccc2c(=O)c2c(O)ccc(O)c21 | 58.6 | 69.3 | > 58.5 | 85.4 | 45.6 µM | 48.2 | 56.1 | 60.6 | 33.4 | 45.1 | – | – | – | – | – | – | – | – | – | –
Cc1ccc2nc(-c3ccccc3)c(N=O)n2c1 | > 100 | > 100 | > 100 | > 100 | 61 µM | > 100 | > 100 | > 100 | > 100 | > 100 | – | – | – | – | – | – | – | – | – | –
Cc1cc(Cc2cc(C)cc(C(C)(C)C)c2O)c(O)c(Cc2cc(C)cc(C(C)(C)C)c2O)c1 | 5.44 | 5.83 | 11.3 | > 20.4 | 8.28 µM | 15.1 | 10.1 | 5.3 | 8.57 | 9.17 | – | – | – | – | – | – | – | – | – | –
COc1cc(NC(=O)CSc2nc3ccc(C)cc3c(=O)n2Cc2ccccc2)cc(OC)c1OC | > 100 | > 100 | > 100 | > 100 | > 100 µM | > 100 | > 100 | > 100 | > 100 | > 100 | 3.38 µM | > 100 | > 100 µM | 69.3 µM | 25.4 µM | 4.42 | 7.01 | 4.86 | 9.55 µM | > 100 µM
CN(C)CC1C(=O)O[C@H]2[C@H]1CC/C(COC(=O)c1cc3ccccc3[nH]1)=C\CC[C@@]1(C)O[C@@H]21 (some centres undefined) | 1.57 | 7.32 | 2.28 | 2.11 | 6.08 µM | 7.48 | 18.5 | 3.24 | 3.2 | 5.5 | 0.577 µM | 1.98 | 0.629 µM | 0.354 µM | 2.2 µM | 2.13 | 4.87 | 1.47 | 1.49 µM | 2.16 µM
COc1ccc(-n2cc(-c3cc(OC)c(OC)c(OC)c3)nc2SCc2ccccc2)cc1OC | > 100 | > 100 | > 100 | > 100 | > 100 µM | > 100 | > 100 | > 100 | > 100 | > 100 | 49.1 µM | 24.6 | 33.3 µM | 25.8 µM | > 100 µM | > 83.6 | > 100 | 77.9 | > 100 µM | 69.3 µM
CCOC(=O)/C(=C\c1ccc(C#N)cc1)C(C)=O | 57.3 | > 100 | 40 | 54.5 | 62.8 µM | 96.9 | > 100 | 43.2 | 98.3 | > 100 | – | – | – | – | – | – | – | – | – | –
N#CC1=C(N)Oc2c(sc3c(Br)cccc23)C1c1ccc(Br)cc1 (centres undefined) | 1.84 | 8.11 | 11.4 | 16 | 13.4 µM | 3.09 | 2.85 | 15.4 | 0.46 | 1.88 | 0.407 µM | 0.546 | 0.601 µM | 1.44 µM | 2.33 µM | 0.588 | 0.38 | 1.19 | 0.109 µM | 0.406 µM
CN1C(=O)C(CC(=O)O)NC1=S (centres undefined) | > 100 | > 100 | > 100 | > 100 | > 100 µM | > 100 | > 100 | > 100 | > 100 | > 100 | – | – | – | – | – | – | – | – | – | –
Oc1[nH]c2c(Br)cccc2c1C1=Nc2ccccc2/C1=N/OCCN1CCCC1 | 1.78 | 3.18 | – | – | 4.99 µM and 8.59 µM | – | 3.69 | – | > 100 | 4.81 | 0.448 µM | 0.354 | 0.719 µM and 0.496 µM | 1.35 µM and 1.59 µM | 0.74 µM | 0.792 | 0.638 | 2.67 | 1.58 µM and 1.91 µM | 0.524 µM
COc1cc(Cl)cc(-c2nn(-c3cccc(NC(=O)Nc4cc(C(F)(F)F)cc(C(F)(F)F)c4)c3)cc2-c2ccncc2)c1 | 1.46 | 1.92 | 2.74 | 1.03 | 3.05 µM | 2.46 | 2.25 | 2.68 | 2.62 | 1.97 | 0.356 µM | 0.33 | 0.383 µM | 0.288 µM | 0.427 µM | 0.39 | 0.622 | 0.686 | 0.684 µM | 0.528 µM
CC(=O)OCC(=O)[C@@]12OC(C)(C)O[C@@H]1C[C@H]1[C@@H]3CC=C4C[C@@H](O)CC[C@]4(C)[C@H]3CC[C@@]12C | > 100 | > 100 | > 100 | > 100 | > 100 µM | > 100 | > 100 | > 100 | > 100 | > 100 | – | – | – | – | – | – | – | – | – | –
Clc1ccc2nnnn2n1 | 4.46 | 44.5 | > 100 | 28 | > 100 µM | > 100 | > 100 | 56.9 | 5.39 | 3.81 | 2.06 µM | 3.26 | 4.01 µM | 3.54 µM | 4.7 µM | 5.22 | 4.05 | 16.1 | 2.13 µM | 2.03 µM
CC(C)COCC(CN(Cc1ccccc1)c1ccccc1)N1CCCC1 (centres undefined) | 10.4 | 13.1 | 15.2 | 5.41 | 15.4 µM | 14.9 | 6.5 | 15.3 | 13.8 | 3.52 | 2.52 µM | 3.61 | 3.15 µM | 1.91 µM | 3.48 µM | 3.75 | 2.02 | 3.28 | 3.46 µM | 1.53 µM
Cc1cc2[nH]c(=O)c3c4ccccc4cn3c2cc1C | 3.13 | 19.4 | 22 | 29.8 | 20.3 µM | 25.9 | 28.5 | 35.9 | 19.8 | 40 | 1.58 µM | 5.68 | 6.18 µM | 6.75 µM | 6.02 µM | 7.07 | 12.2 | 20.2 | 6 µM | 15.2 µM
Cc1ccc2c(c1)C(C)Cc1c(Cl)ncnc1N2C (centres undefined) | 14.2 | > 100 | 14.1 | 17.2 | 13.7 µM | 23.8 | 25.2 | 46.2 | 5.63 | 4.62 | 3.01 µM | 3.37 | 3.08 µM | 3.56 µM | 3.64 µM | 3.77 | 3.12 | 4.29 | 2.23 µM | 2.11 µM
CNC(=O)CC1NC(=O)c2csc(n2)-c2ccc(-c3nc(C4=NC(C(=O)N5CCCC5C(N)=O)CO4)cs3)nc2-c2csc(n2)-c2csc(n2)C(C(C)C)NC(=O)CNC(=O)c2csc(n2)C(C(C)C)NC(=O)c2nc1sc2C (centres undefined) | > 25 | > 25 | > 25 | – | > 25 µM | > 25 | > 25 | > 25 | – | – | > 25 µM | 1.63 | > 25 µM | < 0.001 µM | > 25 µM | > 25 | > 25 | > 25 | < 0.001 µM | > 25 µM
CNCCNc1c2c(c(NCCNC)c3[nH]ccc13)C(=O)c1ccccc1C2=O | 0.498 | – | 0.761 | 0.214 | 0.097 µM | 0.393 | 0.901 | 7.04 | 1.47 | – | 0.0269 µM | < 0.0261 | 0.115 µM | 0.051 µM | < 0.0257 µM | 0.0578 | 0.139 | 1.72 | 0.255 µM | 3.32 µM
O=C(O)C1C(C(=O)O)C23CC2(C(=O)O)C2(C(=O)O)CCC3=C3CCCC312 (centres undefined) | 66.7 | 30.2 | > 100 | 37.9 | 36.4 µM | 64.4 | 20.8 | 15.4 | 49.8 | 16.8 | – | – | – | – | – | – | – | – | – | –
CCN1C(=O)N(c2ccccc2)C2NC(=S)N(/N=C/C=C/c3ccccc3)C21 (centres undefined) | > 100 | > 100 | > 100 | > 100 | > 100 µM | > 100 | > 100 | > 100 | 0.216 | 8.7 | 0.297 µM | 0.38 | 0.293 µM | 0.451 µM | 0.742 µM | 0.429 | 0.276 | 25 | 0.0314 µM | 0.344 µM
O=P(CCCCP(=O)(c1ccccc1)c1ccccc1)(c1ccccc1)c1ccccc1.[Cl][Sn]([Cl])([c]1ccccc1)[c]1ccccc1 | > 100 | > 100 | 3.02 | 1.16 | 5.76 µM | 6.28 | 18.3 | 3.31 | 3.91 | 3.98 | 1.71 µM | 2.06 | 1.23 µM | 0.332 µM | 2.1 µM | 2.3 | 6.36 | 1.68 | 1.77 µM | 1.78 µM
COc1cc(/C=C/C(=O)c2c(C)nc3ccccc3c2/C=C/c2ccc(C)cc2)cc(OC)c1OC | 2.82 | > 100 | 3.62 | 7.87 | 4.31 µM | > 100 | 5.4 | 7.32 | 4.55 | 6.09 | 1.36 µM | 2.56 | 1.53 µM | 2.56 µM | 1.85 µM | 3.25 | 2.19 | 2.71 | 1.99 µM | 2.53 µM
C=C1C(=O)O[C@H]2[C@H]1CCC(/C=N/c1ncc(Br)cc1N)=C\CC[C@@]1(C)O[C@@H]21 | 2.46 | 9.33 | 4.01 | 5.01 | 5.41 µM | 10.9 | 24.3 | 4.45 | 7.51 | 3.59 | 1.06 µM | 2.36 | 1.49 µM | 1.13 µM | 1.78 µM | 2.98 | 10.4 | 1.8 | 2.29 µM | 1.65 µM
COc1cccc(OCCCN)c1-c1cc(Nc2cnc(C#N)cn2)n[nH]1 | 12.9 | 5.69 | 14 | 7.59 | 10.8 µM | 1.44 | 13.4 | 13.1 | 1.23 | 11.2 | 0.105 µM and 0.236 µM | 0.00391 | 0.0585 µM and 0.07 µM | 0.197 µM and 0.0489 µM | 0.189 µM and 0.13 µM | 0.00591 | 0.0037 | 0.142 | 0.00423 µM | 0.0419 µM and 0.0677 µM
O=c1[nH]c(=O)c2cc(C3CC(O)C(CO)O3)ccc2[nH]1 (centres undefined) | > 100 | > 100 | > 100 | > 100 | > 100 µM | > 100 | > 100 | > 100 | > 100 | > 100 | > 100 µM | > 100 | 93.3 µM | > 100 µM | > 100 µM | > 100 | > 100 | > 100 | > 100 µM | > 100 µM
COc1ccccc1N1CCN(CCc2c[nH]c3cc4c(cc23)OCO4)CC1 | > 100 | > 100 | > 100 | > 100 | > 100 µM | > 100 | 27.7 | 88.9 | 52.3 | 34.7 | 10.9 µM | 38.8 | 29.6 µM | 25.1 µM | 23.5 µM | 42 | 0.646 | 26.5 | 14 µM | 15.3 µM
Nc1nc(N)c2c(n1)NC(c1ccc(F)cc1)C1CCc3ccccc3C1=N2 (centres undefined) | 11.9 | – | 16.5 | 5.11 | 21.6 µM | 27 | 6.18 | 17.8 | 11.6 | 3.61 | 3.04 µM | – | 3.99 µM | 1.81 µM | 7.8 µM | 8.07 | 1.71 | 5.37 | 2.84 µM | 1.62 µM
